Reference: BindingDB's records for doi:10.1016/j.bmcl.2003.09.092 (Virginia Commonwealth University, 2003)

Test: Binding affinity for rat imidazoline receptor I-1 from crude P2 membranes

With `C(=C\c1ccccc1)/C1=NCCN1` [2-((E)-Styryl)-4,5-dihydro-1H-imidazole] as the compound, how does the Ki read?
The Ki was 0.01 µM.
